Results reported in article PMC8550792, “Evolution of kinase polypharmacology across HSP90 drug discovery” (Cell Chemical Biology, 2021).

Tests used:
Test in all cases: biochemical
Assay type in all cases: biochemical
[1] = target: T1, 382 unique human kinases (Homo sapiens, UniProt P07949, R813Q); details: RET (R813Q), 10 uM; for remaining activity at 10 µM: read-out: % Enzyme Activity (relative to DMSO controls)
T1 construct: purchased Reaction Biology (HotSpot contract assay)

[2] = target: T2, 382 unique human kinases (Homo sapiens, UniProt P07949, S904F); details: RET (S904F), 10 uM; for remaining activity at 10 µM: read-out: % Enzyme Activity (relative to DMSO controls)
T2 construct: purchased Reaction Biology (HotSpot contract assay)
T2 sequence (P07949 29-1114 S904F): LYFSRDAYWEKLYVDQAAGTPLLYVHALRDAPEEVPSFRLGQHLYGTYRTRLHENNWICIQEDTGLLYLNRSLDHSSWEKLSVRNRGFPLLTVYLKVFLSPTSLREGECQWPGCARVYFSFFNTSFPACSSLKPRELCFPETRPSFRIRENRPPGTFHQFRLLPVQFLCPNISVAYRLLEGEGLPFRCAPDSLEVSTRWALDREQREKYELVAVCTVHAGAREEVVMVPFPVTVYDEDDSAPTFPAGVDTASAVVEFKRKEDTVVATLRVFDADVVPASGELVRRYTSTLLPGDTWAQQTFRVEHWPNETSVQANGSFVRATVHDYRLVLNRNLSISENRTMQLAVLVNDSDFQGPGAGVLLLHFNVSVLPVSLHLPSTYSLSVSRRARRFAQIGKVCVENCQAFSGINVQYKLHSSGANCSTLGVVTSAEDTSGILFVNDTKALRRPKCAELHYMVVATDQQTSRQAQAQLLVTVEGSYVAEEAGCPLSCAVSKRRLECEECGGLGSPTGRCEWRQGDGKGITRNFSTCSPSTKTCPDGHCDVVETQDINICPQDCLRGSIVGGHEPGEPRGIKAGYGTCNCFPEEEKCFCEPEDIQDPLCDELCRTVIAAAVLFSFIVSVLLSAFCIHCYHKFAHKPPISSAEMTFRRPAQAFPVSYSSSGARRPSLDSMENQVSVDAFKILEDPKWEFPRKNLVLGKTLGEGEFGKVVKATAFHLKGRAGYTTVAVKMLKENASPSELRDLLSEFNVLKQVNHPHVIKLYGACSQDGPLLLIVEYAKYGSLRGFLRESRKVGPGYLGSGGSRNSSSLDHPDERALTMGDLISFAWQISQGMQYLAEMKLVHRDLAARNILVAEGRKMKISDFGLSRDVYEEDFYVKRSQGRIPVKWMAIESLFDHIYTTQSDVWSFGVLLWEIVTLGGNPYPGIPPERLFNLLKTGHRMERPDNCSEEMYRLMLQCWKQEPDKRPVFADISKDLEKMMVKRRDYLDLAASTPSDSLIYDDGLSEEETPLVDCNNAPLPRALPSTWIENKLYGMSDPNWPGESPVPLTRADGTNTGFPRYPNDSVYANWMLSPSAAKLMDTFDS

[3] = target: T3, 382 unique human kinases (Homo sapiens, UniProt P10721, T670I); details: c-Kit (T670I); 10 uM; read-out: % Enzyme Activity (relative to DMSO controls)
T3 construct: purchased Reaction Biology (HotSpot contract assay)
T3 sequence (P10721 26-976 T670I): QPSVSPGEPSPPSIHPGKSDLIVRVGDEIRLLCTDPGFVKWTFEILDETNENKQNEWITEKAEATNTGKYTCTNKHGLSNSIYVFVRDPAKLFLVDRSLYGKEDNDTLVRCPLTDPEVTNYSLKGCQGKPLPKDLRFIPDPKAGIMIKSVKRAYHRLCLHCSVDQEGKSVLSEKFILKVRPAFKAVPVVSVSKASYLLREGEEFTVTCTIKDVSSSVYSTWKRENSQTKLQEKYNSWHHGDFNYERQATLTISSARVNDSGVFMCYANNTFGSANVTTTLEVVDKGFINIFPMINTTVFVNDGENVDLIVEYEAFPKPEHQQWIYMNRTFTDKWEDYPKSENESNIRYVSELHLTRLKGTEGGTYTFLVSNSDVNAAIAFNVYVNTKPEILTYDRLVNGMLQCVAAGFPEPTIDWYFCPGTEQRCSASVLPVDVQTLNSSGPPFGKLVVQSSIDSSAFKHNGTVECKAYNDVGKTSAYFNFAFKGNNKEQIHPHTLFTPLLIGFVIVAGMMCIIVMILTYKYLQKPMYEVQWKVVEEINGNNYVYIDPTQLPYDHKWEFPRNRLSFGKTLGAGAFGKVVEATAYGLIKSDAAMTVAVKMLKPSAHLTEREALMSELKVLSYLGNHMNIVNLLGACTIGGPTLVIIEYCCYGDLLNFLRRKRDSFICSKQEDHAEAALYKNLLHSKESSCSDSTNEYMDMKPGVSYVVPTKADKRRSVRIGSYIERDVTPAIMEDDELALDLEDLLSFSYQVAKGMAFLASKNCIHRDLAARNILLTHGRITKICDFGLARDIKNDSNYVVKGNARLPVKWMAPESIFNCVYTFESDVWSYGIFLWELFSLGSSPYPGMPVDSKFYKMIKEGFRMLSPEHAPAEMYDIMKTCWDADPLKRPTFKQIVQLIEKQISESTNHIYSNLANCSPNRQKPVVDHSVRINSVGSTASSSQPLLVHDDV

[4] = target: T4, 382 unique human kinases (Homo sapiens, UniProt Q8NE63); details: HIPK4, 10 uM; for remaining activity at 10 µM: read-out: % Enzyme Activity (relative to DMSO controls)
T4 construct: purchased Reaction Biology (HotSpot contract assay)
T4 sequence (Q8NE63 1-616): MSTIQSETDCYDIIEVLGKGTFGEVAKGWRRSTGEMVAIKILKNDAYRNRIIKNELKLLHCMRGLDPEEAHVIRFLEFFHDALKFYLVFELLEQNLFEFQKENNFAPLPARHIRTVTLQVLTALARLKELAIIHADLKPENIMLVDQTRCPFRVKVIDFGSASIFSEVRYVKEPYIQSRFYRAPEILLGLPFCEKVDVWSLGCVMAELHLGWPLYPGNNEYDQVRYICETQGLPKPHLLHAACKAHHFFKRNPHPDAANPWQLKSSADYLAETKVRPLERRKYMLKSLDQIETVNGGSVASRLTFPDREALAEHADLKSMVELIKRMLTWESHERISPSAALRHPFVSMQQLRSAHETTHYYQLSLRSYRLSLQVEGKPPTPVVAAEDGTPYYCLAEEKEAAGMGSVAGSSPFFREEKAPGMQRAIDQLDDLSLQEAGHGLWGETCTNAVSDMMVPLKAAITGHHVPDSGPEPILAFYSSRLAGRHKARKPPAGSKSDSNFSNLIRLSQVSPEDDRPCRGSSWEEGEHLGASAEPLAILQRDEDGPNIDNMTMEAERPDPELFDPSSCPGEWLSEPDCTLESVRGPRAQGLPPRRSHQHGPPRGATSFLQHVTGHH

[5] = target: T5, 382 unique human kinases (Homo sapiens, UniProt Q96PN8); details: kinase TSSK3/STK22C, compound 10 uM; for remaining activity at 10 µM: read-out: % Enzyme Activity (relative to DMSO controls)
T5 construct: purchased Reaction Biology (HotSpot contract assay)
T5 sequence (Q96PN8 1-268): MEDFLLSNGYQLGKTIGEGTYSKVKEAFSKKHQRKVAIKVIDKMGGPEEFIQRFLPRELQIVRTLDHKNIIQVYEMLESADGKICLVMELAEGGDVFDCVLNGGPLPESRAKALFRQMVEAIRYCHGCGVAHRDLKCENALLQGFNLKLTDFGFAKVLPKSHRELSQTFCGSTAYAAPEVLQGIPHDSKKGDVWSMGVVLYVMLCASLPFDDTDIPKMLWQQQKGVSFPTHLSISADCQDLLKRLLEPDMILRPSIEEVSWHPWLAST

[6] = target: T6, 382 unique human kinases (Homo sapiens, UniProt P00519, H396P); details: ABL1 (H396P), [ATP] 15 µM, compound 10 uM; for remaining activity at 10 µM: read-out: % Enzyme Activity (relative to DMSO controls)
T6 construct: purchased Reaction Biology (HotSpot contract assay)

[7] = target: T7, 382 unique human kinases (Homo sapiens, UniProt P07949, G691S); details: RET (G691S), 10 uM; for remaining activity at 10 µM: read-out: % Enzyme Activity (relative to DMSO controls)
T7 construct: purchased Reaction Biology (HotSpot contract assay)
T7 sequence (P07949 29-1114 G691S): as the sequence (P07949 29-1114 S904F) above, with G663S, F876S counted along it

[8] = target: T8, 382 unique human kinases (Homo sapiens, UniProt P10721, V559D/V654A); details: c-Kit (V559D/V654A), 10 uM; for remaining activity at 10 µM: read-out: % Enzyme Activity (relative to DMSO controls)
T8 construct: purchased Reaction Biology (HotSpot contract assay)
T8 sequence (P10721 26-976 V559D/V654A): as the sequence (P10721 26-976 T670I) above, with V534D, V629A, I645T counted along it

[9] = target: T9, 382 unique human kinases (Homo sapiens, UniProt P36896); details: ALK4/ACVR1B, 10 uM; for remaining activity at 10 µM: read-out: % Enzyme Activity (relative to DMSO controls)
T9 construct: purchased Reaction Biology (HotSpot contract assay)
T9 sequence (P36896 24-505): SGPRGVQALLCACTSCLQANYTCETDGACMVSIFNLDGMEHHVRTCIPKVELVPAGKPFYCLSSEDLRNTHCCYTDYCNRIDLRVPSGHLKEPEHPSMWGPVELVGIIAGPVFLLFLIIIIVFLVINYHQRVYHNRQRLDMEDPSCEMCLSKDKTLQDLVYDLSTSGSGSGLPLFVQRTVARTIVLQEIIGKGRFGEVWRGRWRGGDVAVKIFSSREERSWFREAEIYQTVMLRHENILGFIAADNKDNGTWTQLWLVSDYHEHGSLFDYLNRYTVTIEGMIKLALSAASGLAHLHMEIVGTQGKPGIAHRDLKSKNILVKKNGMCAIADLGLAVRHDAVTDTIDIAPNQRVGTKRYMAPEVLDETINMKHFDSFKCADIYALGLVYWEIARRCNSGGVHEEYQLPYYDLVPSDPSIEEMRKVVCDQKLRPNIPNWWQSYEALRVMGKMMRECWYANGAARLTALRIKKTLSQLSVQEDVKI

[10] = target: T10, 382 unique human kinases (Homo sapiens, UniProt P45983); details: JNK1, 10 uM; for remaining activity at 10 µM: read-out: % Enzyme Activity (relative to DMSO controls)
T10 construct: purchased Reaction Biology (HotSpot contract assay)
T10 sequence (P45983 whole entry): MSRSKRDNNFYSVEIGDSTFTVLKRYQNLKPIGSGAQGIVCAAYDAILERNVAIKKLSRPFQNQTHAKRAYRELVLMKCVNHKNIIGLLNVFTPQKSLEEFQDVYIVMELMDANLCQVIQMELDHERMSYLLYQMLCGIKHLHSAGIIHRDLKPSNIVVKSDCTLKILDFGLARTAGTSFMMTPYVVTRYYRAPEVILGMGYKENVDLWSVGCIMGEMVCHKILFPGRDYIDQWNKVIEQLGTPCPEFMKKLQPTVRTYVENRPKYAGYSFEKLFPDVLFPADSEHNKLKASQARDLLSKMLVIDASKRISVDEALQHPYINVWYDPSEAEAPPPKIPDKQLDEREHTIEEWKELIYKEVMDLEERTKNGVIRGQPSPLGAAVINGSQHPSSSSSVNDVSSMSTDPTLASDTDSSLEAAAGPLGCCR

[11] = target: T11, 382 unique human kinases (Homo sapiens, UniProt P51451); details: BLK, [ATP] 10 µM
T11 construct: purchased Reaction Biology (HotSpot contract assay)
T11 sequence (P51451 whole entry): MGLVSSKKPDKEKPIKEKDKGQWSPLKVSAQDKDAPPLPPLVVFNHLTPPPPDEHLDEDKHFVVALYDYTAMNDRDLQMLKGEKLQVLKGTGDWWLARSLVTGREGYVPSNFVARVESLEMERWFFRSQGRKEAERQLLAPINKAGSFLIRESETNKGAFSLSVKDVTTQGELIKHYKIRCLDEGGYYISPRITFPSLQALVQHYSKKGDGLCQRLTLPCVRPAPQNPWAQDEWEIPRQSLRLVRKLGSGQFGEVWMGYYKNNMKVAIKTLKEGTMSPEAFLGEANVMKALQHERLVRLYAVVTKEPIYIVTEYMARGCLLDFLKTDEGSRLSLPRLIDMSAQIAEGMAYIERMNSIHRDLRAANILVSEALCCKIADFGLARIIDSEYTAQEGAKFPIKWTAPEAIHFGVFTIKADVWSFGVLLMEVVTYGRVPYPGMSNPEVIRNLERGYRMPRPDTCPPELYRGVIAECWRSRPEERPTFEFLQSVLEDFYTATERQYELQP

[12] = target: T12, 382 unique human kinases (Homo sapiens, UniProt Q15746); details: MLCK/MYLK, [ATP] 30 µM, compound 10 uM; for remaining activity at 10 µM: read-out: % Enzyme Activity (relative to DMSO controls)
T12 construct: purchased Reaction Biology (HotSpot contract assay)

[13] = target: T13, 382 unique human kinases (Homo sapiens, UniProt Q52WX2); details: SBK1, 10 uM; for remaining activity at 10 µM: read-out: % Enzyme Activity (relative to DMSO controls)
T13 construct: purchased Reaction Biology (HotSpot contract assay)
T13 sequence (Q52WX2 whole entry): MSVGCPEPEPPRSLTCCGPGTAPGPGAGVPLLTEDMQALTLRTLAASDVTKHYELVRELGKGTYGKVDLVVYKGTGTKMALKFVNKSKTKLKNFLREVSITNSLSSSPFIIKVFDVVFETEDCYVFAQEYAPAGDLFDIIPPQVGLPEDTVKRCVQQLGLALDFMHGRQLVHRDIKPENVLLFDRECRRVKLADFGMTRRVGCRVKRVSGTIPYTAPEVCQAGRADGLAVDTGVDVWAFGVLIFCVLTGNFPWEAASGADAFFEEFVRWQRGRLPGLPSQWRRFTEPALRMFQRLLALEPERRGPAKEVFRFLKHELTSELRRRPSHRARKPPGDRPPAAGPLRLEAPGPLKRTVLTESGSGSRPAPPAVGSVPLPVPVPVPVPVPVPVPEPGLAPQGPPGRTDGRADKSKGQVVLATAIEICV

[14] = compound 10 uM, read-out: % Enzyme Activity (relative to DMSO controls)

T1 sequence (P07949 29-1114 R813Q): as the sequence (P07949 29-1114 S904F) above, with R785Q, F876S counted along it

CC(C)c1cc(-c2n[nH]c(=O)n2-c2ccc3c(ccn3C)c2)c(O)cc1O [Ganetespib (STA9090)]
remaining activity at 10 µM [1]: 78% | remaining activity at 10 µM [2]: 61.6% | remaining activity at 10 µM [3]: 67.1% | remaining activity at 10 µM [4]: 64.4% | remaining activity at 10 µM [5]: 93.1%

CC(C)c1cc(-c2n[nH]c(=O)n2-c2ccc3c(ccn3C)c2)c(O)cc1O [Ganetespib]
remaining activity at 10 µM [6]: 2.43% | remaining activity at 10 µM [7]: 98.6% | remaining activity at 10 µM [8]: 91.1% | remaining activity at 10 µM [9]: 111% | remaining activity at 10 µM [10]: 99.3% | remaining activity at 1 µM ([11]; compound 1 uM, read-out: % Enzyme Activity (relative to DMSO controls)): 38.4% | remaining activity at 10 µM [11, 14]: 7.74% | remaining activity at 10 µM [12]: 38.6% | remaining activity at 10 µM [13]: 99.8%

CCNC(=O)c1noc(-c2cc(C(C)C)c(O)cc2O)c1-c1ccc(CN2CCOCC2)cc1 [Luminespib]
% Enzyme Activity (relative to DMSO controls) [6]: 6.11% | remaining activity at 10 µM [6]: 6.74% | % Enzyme Activity (relative to DMSO controls) [7]: 100.12% | remaining activity at 10 µM [7]: 101% | % Enzyme Activity (relative to DMSO controls) [8]: 102.17% | remaining activity at 10 µM [8]: 103% | % Enzyme Activity (relative to DMSO controls) [9]: 94.12% | remaining activity at 10 µM [9]: 95% | % Enzyme Activity (relative to DMSO controls) [10]: 101.32% | remaining activity at 10 µM [10]: 103% | % Enzyme Activity (relative to DMSO controls) ([11]; compound 10 uM): 36.97% | remaining activity at 10 µM [11, 14]: 38.1% | % Enzyme Activity (relative to DMSO controls) [12]: 95.43% | remaining activity at 10 µM [12]: 97.5% | % Enzyme Activity (relative to DMSO controls) [13]: 93.40% | remaining activity at 10 µM [13]: 94.6%

CCNC(=O)c1noc(-c2cc(C(C)C)c(O)cc2O)c1-c1ccc(CN2CCOCC2)cc1 [Luminespib (AUY-922)]
% Enzyme Activity (relative to DMSO controls) [1]: 103.53% | remaining activity at 10 µM [1]: 105% | % Enzyme Activity (relative to DMSO controls) [2]: 101.49% | remaining activity at 10 µM [2]: 102% | remaining activity at 10 µM [3]: 84.5% | % Enzyme Activity (relative to DMSO controls) [4]: 88.32% | remaining activity at 10 µM [4]: 88.8% | % Enzyme Activity (relative to DMSO controls) [5]: 144.69% | remaining activity at 10 µM [5]: 147%
